Where “and” joins values, the source holds several entries; their conditions need not be identical. Equal entries are not always repeated. Toxic doses and inconclusive results are not listed. The calls were made as follows: active = survival T/C of 150% or more; inactive = T/C below 125% in these data.
Test system: CD2F1 mice, L1210 leukemia ip, survival T/C
Experiment: NCI In Vivo Anticancer Drug Screen. Data for tumor model L1210 Leukemia (intraperitoneal) in CD2F1 (CDF1) mice
Details: endpoint: mean survival time, higher = longer survival
Method in brief: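 Read-out first: treated-group measurement over vehicle-control measurement, expressed as a ratio. Animals bore a transplanted tumor line and were dosed with compound or vehicle.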

[1] = dose: 100.0 mg/kg/injection, schedule: Q01DX009 (ip), vehicle: saline with Tween-80
[2] = dose: 200.0 mg/kg/injection, schedule: Q01DX009 (ip), vehicle: saline with Tween-80
[3] = dose: 400.0 mg/kg/injection, schedule: Q01DX009 (ip), vehicle: saline with Tween-80
[4] = dose: 37.5 mg/kg/injection, schedule: Q01DX009 (ip), vehicle: saline
[5] = dose: 75.0 mg/kg/injection, schedule: Q01DX009 (ip), vehicle: saline
[6] = dose: 150.0 mg/kg/injection, schedule: Q01DX009 (ip), vehicle: saline
[7] = dose: 50.0 mg/kg/injection, schedule: Q01DX009 (ip), vehicle: saline
[8] = dose: 100.0 mg/kg/injection, schedule: Q01DX001 (ip), vehicle: saline
[9] = dose: 100.0 mg/kg/injection, schedule: Q01DX009 (ip), vehicle: saline
[10] = dose: 200.0 mg/kg/injection, schedule: Q01DX001 (ip), vehicle: saline
[11] = dose: 200.0 mg/kg/injection, schedule: Q01DX009 (ip), vehicle: saline
[12] = dose: 400.0 mg/kg/injection, schedule: Q01DX001 (ip), vehicle: saline
[13] = dose: 5.0 mg/kg/injection, schedule: Q01DX009 (ip), vehicle: saline with Tween-80
[14] = dose: 100.0 mg/kg/injection, schedule: Q04DX003 (ip), vehicle: saline with Tween-80
[15] = dose: 200.0 mg/kg/injection, schedule: Q04DX003 (ip), vehicle: saline with Tween-80
[16] = dose: 400.0 mg/kg/injection, schedule: Q04DX003 (ip), vehicle: saline with Tween-80

Measured: T/C

CC(=O)Nc1ccc([N+](=O)[O-])c2ccccc12
inactive: dose: 37.5 mg/kg/injection, schedule: Q04DX002 (ip), vehicle: saline with Tween-80 101 % of control | dose: 75.0 mg/kg/injection, schedule: Q04DX002 (ip), vehicle: saline with Tween-80 101 % of control | dose: 150.0 mg/kg/injection, schedule: Q04DX002 (ip), vehicle: saline with Tween-80 104 % of control

COC(=O)CC1(C(=O)OC)OC(=O)c2ccccc2N1C (centres undefined)
inactive: [1] 103 % of control | [2] 106 % of control | [3] 101 % of control

CC1(C)N=C(N)N=C(N)N1c1ccc(CCCCc2ccc(Cl)c(S(=O)(=O)F)c2)c(Cl)c1
inactive: dose: 2.4 mg/kg/injection, schedule: Q01DX009 (ip), vehicle: saline with Tween-80 101 % of control | dose: 3.6 mg/kg/injection, schedule: Q01DX009 (ip), vehicle: saline with Tween-80 95 % of control | dose: 5.4 mg/kg/injection, schedule: Q01DX009 (ip), vehicle: saline with Tween-80 104 % of control | dose: 8.0 mg/kg/injection, schedule: Q01DX009 (ip), vehicle: saline with Tween-80 106 % of control | dose: 12.0 mg/kg/injection, schedule: Q01DX009 (ip), vehicle: saline with Tween-80 108 % of control | dose: 18.0 mg/kg/injection, schedule: Q01DX009 (ip), vehicle: saline with Tween-80 117 % of control | dose: 100.0 mg/kg/injection, schedule: Q04DX003 (ip), vehicle: saline sonified 90 % of control

O=c1cc[nH]c2c(-c3ccccc3)cccc12
inactive: [4] 108 % of control | [5] 105 % of control | dose: 75.0 mg/kg/injection, schedule: Q04DX003 (ip), vehicle: saline 95 % of control | [6] 97 % of control | dose: 150.0 mg/kg/injection, schedule: Q04DX003 (ip), vehicle: saline 98 % of control | dose: 300.0 mg/kg/injection, schedule: Q04DX003 (ip), vehicle: saline 97 % of control

CC(=O)Oc1ccc2c(c1)C(=O)CCCCCC(=O)O2
inactive: dose: 12.5 mg/kg/injection, schedule: Q01DX009 (ip), vehicle: saline 100 % of control | dose: 12.5 mg/kg/injection, schedule: Q04DX003 (ip), vehicle: saline 97 % of control | dose: 25.0 mg/kg/injection, schedule: Q01DX001 (ip), vehicle: saline 98 % of control | dose: 25.0 mg/kg/injection, schedule: Q01DX009 (ip), vehicle: saline 97 % of control | dose: 25.0 mg/kg/injection, schedule: Q04DX003 (ip), vehicle: saline 98 % of control | dose: 50.0 mg/kg/injection, schedule: Q01DX001 (ip), vehicle: saline 110 % of control | [7] 94 % of control | dose: 50.0 mg/kg/injection, schedule: Q04DX003 (ip), vehicle: saline 111 % of control | [8] 98 % of control | [9] 95 % of control | dose: 100.0 mg/kg/injection, schedule: Q04DX003 (ip), vehicle: saline 120 % of control | [10] 100 % of control | [11] 89 % of control | dose: 200.0 mg/kg/injection, schedule: Q04DX003 (ip), vehicle: saline 102 % of control | [12] 111 % of control

CC(=O)O[C@@H]1[C@@H](O)[C@H]2O[C@@H]3C=C(C)CC[C@]3(CO)[C@]1(C)[C@@]21CO1
inactive: dose: 1.25 mg/kg/injection, schedule: Q01DX009 (ip), vehicle: saline with Tween-80 103 % of control | dose: 2.5 mg/kg/injection, schedule: Q01DX009 (ip), vehicle: saline with Tween-80 115 % of control | [13] 115 % of control

Cn1c(C[N+](C)(C)C)cc2ccccc21
inactive: [7] 90 % of control | [9] 93 % of control

CCOC(=O)C(C(C)=O)C(c1ccc(OC)cc1)C(C(C)=O)C(=O)OCC (centres undefined)
inactive: [1] 94 % of control | [14] 100 % of control | [2] 97 % of control | [15] 99 % of control | [3] 92 % of control | [16] 106 % of control

CC(C)CCCC(C)C1CCC2C3CC=C4CC(OC(=O)CCC(C)C)CC(O)C4(C)C3CCC12C (centres undefined)
inactive: [1] 96 % of control | [2] 94 % of control | [3] 94 % of control

O=S1Cc2ccccc2C1
inactive: [14] 98 % of control

CNc1ccc(C(=O)O)cc1C(F)(F)F
inactive: [8] 102 % of control | [10] 101 % of control | [12] 102 % of control

O=C(O)C(c1ccccc1)C(F)(F)F (centres undefined)
inactive: [1] 95 % of control | [14] 108 % of control | [2] 105 % of control | [15] 94 % of control | [3] 94 % of control | [16] 92 % of control

Nc1ccccc1Sc1ccc2c3c(cccc13)C(=O)N(c1ccccc1)C2=O
inactive: dose: 25.0 mg/kg/injection, schedule: Q04DX002 (ip), vehicle: saline with Tween-80 95 % of control | dose: 50.0 mg/kg/injection, schedule: Q04DX002 (ip), vehicle: saline with Tween-80 98 % of control | dose: 100.0 mg/kg/injection, schedule: Q04DX002 (ip), vehicle: saline with Tween-80 87 % of control

CC1(c2ccc(O)cc2)CCC(C(C)(C)c2ccc(O)cc2)CC1 (centres undefined)
inactive: [14] 92 % of control | [15] 90 % of control | [16] 90 % of control

O=C(OCC1OC([Se])C(OC(=O)c2ccccc2)C(OC(=O)c2ccccc2)C1OC(=O)c1ccccc1)c1ccccc1.[CH3][Sb][CH3] (centres undefined)
inactive: dose: 50.0 mg/kg/injection, schedule: Q01DX009 (ip), vehicle: Klucel (hydroxypropylcellulose) (HPC) 100 % of control | dose: 100.0 mg/kg/injection, schedule: Q01DX009 (ip), vehicle: Klucel (hydroxypropylcellulose) (HPC) 103 % of control | dose: 200.0 mg/kg/injection, schedule: Q01DX009 (ip), vehicle: Klucel (hydroxypropylcellulose) (HPC) 100 % of control

CC(=O)OC1OC(CO)C(OC(C)=O)C(OC(C)=O)C1OC(C)=O (centres undefined)
inactive: dose: 100.0 mg/kg/injection, schedule: Q01DX009 (ip), vehicle: saline sonified 97 % of control | dose: 200.0 mg/kg/injection, schedule: Q01DX009 (ip), vehicle: saline sonified 97 % of control | dose: 400.0 mg/kg/injection, schedule: Q01DX009 (ip), vehicle: saline sonified 98 % of control

CSc1ccc(N=C/C=C/c2ccccc2)cc1
inactive: [14] 93 % of control | [16] 91 % of control

CC(C)C(=O)[O][Sn]([CH2]c1ccccc1)([CH2]c1ccccc1)[CH2]c1ccccc1
inactive: dose: 25.0 mg/kg/injection, schedule: Q01DX009 (ip), vehicle: saline with Tween-80 90 % of control | dose: 25.0 mg/kg/injection, schedule: Q04DX003 (ip), vehicle: saline with Tween-80 95 % of control | dose: 50.0 mg/kg/injection, schedule: Q01DX009 (ip), vehicle: saline with Tween-80 95 % of control | dose: 50.0 mg/kg/injection, schedule: Q04DX003 (ip), vehicle: saline with Tween-80 90 % of control | [14] 87 % of control

NCCSCC(N)C(=O)O (centres undefined)
inactive: [7] 100 % of control | [9] 100 % of control | [11] 104 % of control

CC1=NN(c2ccccc2)C(=O)C1
inactive: [1] 98 % of control | [14] 94 % of control | [2] 102 % of control | [15] 92 % of control | [3] 96 % of control | [16] 86 % of control

CCOc1ccc(/C=C/C(=O)c2ccc(C)cc2)cc1OCC
inactive: [4] 98 % of control | [5] 98 % of control | [6] 113 % of control

Cc1cc(N(CC(C)Cl)CC(C)Cl)ccc1N=Nc1ccccc1C(=O)O (centres undefined)
inactive: dose: 1.56 mg/kg/injection, schedule: Q01DX009 (ip), vehicle: Klucel (hydroxypropylcellulose) (HPC) 104 % of control | dose: 3.12 mg/kg/injection, schedule: Q01DX009 (ip), vehicle: Klucel (hydroxypropylcellulose) (HPC) 104 % of control | dose: 6.25 mg/kg/injection, schedule: Q01DX009 (ip), vehicle: Klucel (hydroxypropylcellulose) (HPC) 117 % of control and 109 % of control | dose: 12.5 mg/kg/injection, schedule: Q01DX009 (ip), vehicle: Klucel (hydroxypropylcellulose) (HPC) 111 % of control

CC(=O)N1CCC2(CC1)SSC1(CCN(C(C)=O)CC1)S2
inactive: [13] 102 % of control | dose: 5.0 mg/kg/injection, schedule: Q04DX003 (ip), vehicle: saline with Tween-80 92 % of control | dose: 10.0 mg/kg/injection, schedule: Q01DX009 (ip), vehicle: saline with Tween-80 103 % of control | dose: 10.0 mg/kg/injection, schedule: Q04DX003 (ip), vehicle: saline with Tween-80 91 % of control | dose: 20.0 mg/kg/injection, schedule: Q01DX009 (ip), vehicle: saline with Tween-80 100 % of control | dose: 20.0 mg/kg/injection, schedule: Q04DX003 (ip), vehicle: saline with Tween-80 96 % of control
